Type in all cases: cell-based
Test [1] deals with Candida albicans ATCC#10203. In words: MIC / synergy index test in 96 well microtiter plates, yeast. The conditions noted are these: C. albicans, PDB; for MIC: Candida albicans, ATCC10203, 48 h, DTEA alone, read-out: MIC alone, CB (compound B). How it is done:
(§1) Surfactants and biocides were evaluated for synergy by determining the synergy index (S.I.) of the combination. Synergy index was calculated based on minimum inhibitory concentrations (MIC) of two antimicrobial compounds (A and B) alone and in combinations. The tests organisms were Gram negative bacteria (Pseudomonas aeruginosa ATCC #15442), Gram positive bacteria (Staphylococcus aureus ATCC #6538), yeast (Candida albicans ATCC#10203) and mold (Aspergillus niger ATCC#16404). Contact time for the bacteria was 24 and 48 hours, yeast was 48 and 72 hrs, and 3 and 7 days for mold. The test was carried out in 96 well microtiter plates. R^1O(CH2CH(CH3)O)5(CH2CH2O)9H, where R^1 is 2-ethylhexyl Surf. A R^2O(CH2CH(CH3)O)3(CH2CH2O)5H Surf. D R^2O(CH2CH(CH3)O)3(CH2CH2O)7H Surf. E In Surf. D and Surf. E, R^2 is a mixture of C8-C14 linear alkyl groups (70% C8-C10 linear alkyl and 30% C12-C14 linear alkyl) Inoculums Used
(§2) The pH of the Triptic soy broth was 7.3 and the Potato dextrose broth was 5.1.
(§3) SI is calculated as follows: Ca/CA+Cb/CB=Synergy Index (“SI”) Wherein: • CA=concentration of compound A in ppm, acting alone, which produced an end point (MIC of Compound A). • Ca=concentration of compound A in ppm, in the mixture, which produced an end point. • CB=concentration of compound B in ppm, acting alone, which produced an end point (MIC of Compound B). • Cb=concentration of compound B in ppm, in the mixture, which produced an end point. When the sum of Ca/CA and Cb/CB is greater than one, antagonism is indicated.

The test system of test [2] is Staphylococcus aureus ATCC #6538. In words: MIC / synergy index test in 96 well microtiter plates, Gram positive bacteria. The conditions noted are these: S. aureus, 1/10 TSB; for MIC: Staphylococcus aureus, ATCC6538, 24 h, DTEA alone, read-out: MIC alone, CB (compound B). The procedure:
as §1, §2, §3

Test [3] concerns Pseudomonas aeruginosa ATCC #15442. Description: MIC / synergy index test in 96 well microtiter plates, Gram negative bacteria. The conditions noted are these: ATCC15442, 24 h, read-out: MIC alone, CB (compound B). How it is done: as §1, with “Used […]” for “Used”
(§4) SI is calculated as follows: Ca/CA+Cb/CB=Synergy Index (“SI”) Wherein: • CA=concentration of compound A in ppm, acting alone, which produced an end point (MIC of Compound A). • Ca=concentration of compound A in ppm, in the mixture, which produced an end point. • CB=concentration of compound B in ppm, acting alone, which produced an end point (MIC of Compound B). • Cb=concentration of compound B in ppm, in the mixture, which produced an end point. […]

Test [4] concerns Aspergillus niger ATCC#16404. In words: MIC / synergy index test in 96 well microtiter plates, mold. The conditions noted are these: 3rd day, PDB; for MIC: Aspergillus niger, ATCC16404, DTEA alone, A. niger, read-out: MIC alone, CB (compound B). How it is done:
as §1, §2, §3

Test [5] has as its system any organism tested (Pseudomonas aeruginosa, Staphylococcus aureus, Candida albicans, Aspergillus niger). In words: Synergy of other biocides paired with the surfactants, any organism tested. The conditions noted are these: listed under Surf. D; except for one data point. The procedure:
as §1, §4

The mark [6] stands for this setting: inoculum 1.156E+06, Surf. A series.

Read-outs that look alike come from different tables or passages of the source.

Regarding `CCCCCCCCCCSCCN` [DTEA, 2-decylthioethylamine], the MIC (in general, the lowest concentration found to suppress growth) was 50 µg/mL in test [1] (setting [6]); 50 µg/mL in test [1] (inoculum 1.8E+06, Surf. E series); 40 µg/mL in test [1] (inoculum 5.72E+05, Surf. D series); 4 µg/mL in test [2] (setting [6]); 5 µg/mL in test [2] (inoculum 1.156E+06, Surf. E series); 5 µg/mL in test [2] (inoculum 1.8E+05, Surf. D series). The MIC in test [3] was 20 µg/mL; in test [4] (setting [6]) it was 200 µg/mL; in test [4] (inoculum 1.156E+06, Surf. D series), 100 µg/mL; in test [4] (inoculum 1.56E+06, Surf. E series), 200 µg/mL.
Turning to `Cn1sc2ccccc2c1=O` [MBIT], in test [5], the “Ratio of surfactant to biocide where synergy was observed” value is “synergistic only at 1:0.05 or worse”.
Turning to “R^1O(CH2CH(CH3)O)5(CH2CH2O)9H, where R^1 is 2-ethylhexyl [Surf. A]”, the “MIC alone, CA (compound A)” value is on record as greater than 20000 ppm in test [1] (Surf. A alone, 48 hrs, inoculum 1.156E+06); greater than 20000 ppm in test [2] (Surf. A alone, 24 hrs, inoculum 1.156E+06); greater than 20000 ppm in test [4] (Surf. A alone, inoculum 1.156E+06).
On to `CCCCNC(=O)OCC#CI` [IPBC], for which the “Ratio of surfactant to biocide where synergy was observed” value in test [5] was “synergistic only at 1:0.05 or worse”.

Values taken from US9913468B2, “Microbicidal composition” (Dow Global Technologies LLC, priority 2013, dated 2018).
